A word on the IC50: it is the midpoint of a concentration-inhibition curve. By AUC(0-t) is commonly meant the area under the concentration-time curve up to a stated or last time point. The low end stands for low exposure, the high end for high exposure. In general, Cmax refers to the peak of the concentration-time curve. As a reminder, the inhibition is the change of the read-out against control, counted positive when it falls. For orientation: % Inhibition means the relative decrease from the control value, in per cent.

The values that follow come from paper PMC12006963, “Application of Deuterium in an M1 Positive Allosteric Modulator Back-Up Program: The Discovery of VU6045422” (ACS Chemical Neuroscience, 2025).

Details of data set [1]: method as in PMID 39660766. To be noted: rat hepatic microsomes; cited from earlier work.
For data set [2], the target named is T1, hERG (Homo sapiens, UniProt Q12809). Further details: method as in PMID 39660766. The settings on record: read-out: hERG manual patch clamp IC50; cited from earlier work. (hERG is a cardiac potassium channel; its block is linked to QT prolongation.)
T1 sequence (Q12809 whole entry): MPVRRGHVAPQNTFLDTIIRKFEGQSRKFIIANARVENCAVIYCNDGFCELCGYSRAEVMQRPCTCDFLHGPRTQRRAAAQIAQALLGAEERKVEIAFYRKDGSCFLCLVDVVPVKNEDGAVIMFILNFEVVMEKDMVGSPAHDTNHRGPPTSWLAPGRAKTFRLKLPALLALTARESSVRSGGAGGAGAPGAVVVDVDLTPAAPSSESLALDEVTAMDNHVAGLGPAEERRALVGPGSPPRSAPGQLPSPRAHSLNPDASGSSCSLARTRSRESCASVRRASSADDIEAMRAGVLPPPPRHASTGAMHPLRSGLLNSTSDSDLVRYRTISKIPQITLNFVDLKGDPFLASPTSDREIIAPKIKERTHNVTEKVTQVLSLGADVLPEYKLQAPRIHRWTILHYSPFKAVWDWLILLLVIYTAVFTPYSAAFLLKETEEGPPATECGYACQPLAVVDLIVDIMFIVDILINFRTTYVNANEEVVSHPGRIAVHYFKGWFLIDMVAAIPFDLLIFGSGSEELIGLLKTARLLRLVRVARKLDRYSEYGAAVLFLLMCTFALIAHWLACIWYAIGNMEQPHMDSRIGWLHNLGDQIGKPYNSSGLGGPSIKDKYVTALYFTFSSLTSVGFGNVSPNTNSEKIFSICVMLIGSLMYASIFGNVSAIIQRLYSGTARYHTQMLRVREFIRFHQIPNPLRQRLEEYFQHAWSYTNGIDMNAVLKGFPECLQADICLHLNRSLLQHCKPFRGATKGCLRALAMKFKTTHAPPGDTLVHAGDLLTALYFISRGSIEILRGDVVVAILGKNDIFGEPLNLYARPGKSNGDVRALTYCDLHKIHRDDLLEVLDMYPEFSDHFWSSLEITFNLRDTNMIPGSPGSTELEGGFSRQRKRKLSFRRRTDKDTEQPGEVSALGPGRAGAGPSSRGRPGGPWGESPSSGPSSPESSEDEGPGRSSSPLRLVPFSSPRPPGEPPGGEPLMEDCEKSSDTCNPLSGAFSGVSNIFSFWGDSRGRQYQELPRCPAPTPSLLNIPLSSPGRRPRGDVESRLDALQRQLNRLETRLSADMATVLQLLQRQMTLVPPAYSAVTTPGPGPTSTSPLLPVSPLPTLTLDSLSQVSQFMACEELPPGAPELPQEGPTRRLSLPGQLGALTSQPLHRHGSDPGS
Data set [3] addresses T1, hERG. Nature of the data set: hERG manual patch clamp. Type of data set: cell-based.
Data set [4] can be described thus: Rat oral dose escalation PK study. The settings on record: for AUC(0-t) / Cmax: Sprague-Dawley, plasma, rat, oral. Type of data set: in vivo. The protocol:
page 9: Brain plasma concentration ratio (Kp) was calculated by dividing brain concentration by plasma concentration for each animal. Unbound brain to unbound plasma concentration ratio (Kp,uu) is calculated using the following formula: Kp,uu = (Brain ng/g x brain fu)/(plasma ng/ml x plasma fu). Pharmacokinetic profiles in rats following oral single escalating doses Single escalating oral dosing in Sprague-Dawley rats was performed at Frontage Laboratories according to their non-GLP Standard Operating Procedure and IACUC protocols. […] At different times, arterial blood was collected from a femoral artery catheter, and compound concentration was determined in plasma by LC-MS/MS following their non-GLP protocol. PK parameters were determined using Phoenix WinNonlin software (version 6.3). In-vitro determination of blood-brain barrier penetration potential Blood-brain barrier penetration was determined using MDR1-MDCK cell monolayers by Absorption Systems, following their protocol. In short, compounds were incubated at […] final concentration on one side of the cell monolayer for 2 hours. Compounds concentration on either side of the monolayer was determined by LC-MS/MS and apparent permeability and efflux ratio were determined as described in Wang, Q. et al.1 Behavioral Manifestations of Seizure Activity To evaluate induction of behavioral manifestation of seizure activity, C57Bl/6 mice received administration of vehicle or 100 mg/kg M1 PAM 5. Compound was formulated in 30% Captisol (pH 7.0) at a concentration of 10 mg/mL and injected i.p. at 10 ml/kg (n = 4). Animals were monitored continuously and scored for behavioral manifestations of seizure activity at 5, 15, 30 min, and 1 h. Behavioral manifestations of seizures were scored using a modified Racine scoring system. Briefly, a score of 0 represents no behavior alterations; score 1, immobility, mouth and facial movements, or facial clonus; score 2, head nodding, tail extension; score 3, forelimb clonus, repetitive movements; score 4, rearing and tonic clonic seizure; and score 5, continuous rearing and falling, severe generalized tonic clonic seizure. Novel Object Recognition Task S9

The target of data set [5] is Adenosine A2A (Homo sapiens, UniProt P29274). The data set is described as follows: Eurofins radioligand binding.
The target of data set [6] is Adrenergic α2A (Homo sapiens, UniProt P08913). The data set is described as follows: Eurofins radioligand binding.
Adrenergic α2A, sequence (P08913 whole entry): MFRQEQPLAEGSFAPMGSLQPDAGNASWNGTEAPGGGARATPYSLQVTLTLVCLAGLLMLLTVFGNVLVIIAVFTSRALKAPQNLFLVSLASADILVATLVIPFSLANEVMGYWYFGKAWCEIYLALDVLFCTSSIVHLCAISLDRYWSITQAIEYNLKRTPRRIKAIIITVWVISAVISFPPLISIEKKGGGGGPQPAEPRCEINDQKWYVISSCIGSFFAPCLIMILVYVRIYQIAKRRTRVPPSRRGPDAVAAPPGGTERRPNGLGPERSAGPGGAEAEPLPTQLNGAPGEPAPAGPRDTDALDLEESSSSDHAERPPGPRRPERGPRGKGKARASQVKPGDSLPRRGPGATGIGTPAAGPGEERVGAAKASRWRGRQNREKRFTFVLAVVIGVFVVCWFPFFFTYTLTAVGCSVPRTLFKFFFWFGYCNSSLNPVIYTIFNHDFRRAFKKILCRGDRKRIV
The target of data set [7] is Bradykinin B1 (Homo sapiens, UniProt P46663). Nature of the data set: Eurofins radioligand binding.
The target in data set [8] is Bradykinin B2 (Homo sapiens, UniProt P30411). The data set is described as follows: Eurofins radioligand binding.
Data set [9] deals with Calcium Channel L-Type, Dihydropyridine. Nature of the data set: Eurofins radioligand binding. Further details: species or system Rat.
Data set [10] concerns the target Dopamine D1 (Homo sapiens, UniProt P21728). Nature of the data set: Eurofins radioligand binding.
Data set [11] deals with Dopamine D2S (Homo sapiens, UniProt P14416). Nature of the data set: Eurofins radioligand binding.
The target in data set [12] is Dopamine D3 (Homo sapiens, UniProt P35462). The data set is described as follows: Eurofins radioligand binding.
In data set [13] the target is Endothelin ETB (Homo sapiens, UniProt P24530). Nature of the data set: Eurofins radioligand binding.
Endothelin ETB, sequence (P24530 27-442): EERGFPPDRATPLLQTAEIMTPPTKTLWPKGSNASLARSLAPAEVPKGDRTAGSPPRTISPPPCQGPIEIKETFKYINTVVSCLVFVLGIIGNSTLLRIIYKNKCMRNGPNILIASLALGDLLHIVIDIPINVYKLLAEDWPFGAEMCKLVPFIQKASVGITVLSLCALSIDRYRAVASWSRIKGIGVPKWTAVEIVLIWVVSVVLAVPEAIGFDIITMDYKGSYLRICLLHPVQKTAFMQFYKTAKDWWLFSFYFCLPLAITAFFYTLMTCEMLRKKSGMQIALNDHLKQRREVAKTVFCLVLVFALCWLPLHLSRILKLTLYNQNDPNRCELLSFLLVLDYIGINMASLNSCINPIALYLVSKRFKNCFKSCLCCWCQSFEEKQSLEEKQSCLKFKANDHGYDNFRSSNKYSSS
In data set [14] the test system is GABAA, Flunitrazepam, Central. Nature of the data set: Eurofins radioligand binding. Further details: species or system Rat.
Data set [15] addresses GABAB1A (Homo sapiens, UniProt Q9UBS5). Nature of the data set: Eurofins radioligand binding.
Data set [16] has as its system Glutamate, Kainate. The data set is described as follows: Eurofins radioligand binding. Further details: species or system Rat.
The subject of data set [17] is Glutamate, NMDA, Agonism. The data set is described as follows: Eurofins radioligand binding. Further details: species or system Rat.
Data set [18] has as its system Glutamate, NMDA, Glycine. Nature of the data set: Eurofins radioligand binding. Further details: species or system Rat.
Data set [19] has as its target Histamine H1 (Homo sapiens, UniProt P35367). The data set is described as follows: Eurofins radioligand binding.
Data set [20] concerns the target Histamine H3 (Homo sapiens, UniProt Q9Y5N1). Nature of the data set: Eurofins radioligand binding.
For data set [21], the target named is Neuropeptide Y Y2 (Homo sapiens, UniProt P49146). The data set is described as follows: Eurofins radioligand binding.
Data set [22] has as its target Nicotinic Acetylcholine α1, Bungarotoxin (Homo sapiens, UniProt P02708+P07510+Q07001). Nature of the data set: Eurofins radioligand binding. The settings on record: read-out: % Inhibition at 10 µM.
Data set [23] has as its target Opiate μ (OP3, MOP) (Homo sapiens, UniProt P35372). Nature of the data set: Eurofins radioligand binding.
The subject of data set [24] is Rolipram. The data set is described as follows: Eurofins radioligand binding. Further details: species or system Rat.
The target in data set [25] is Serotonin (5-HT1A) (Homo sapiens, UniProt P08908). Nature of the data set: Eurofins radioligand binding.
Data set [26] has as its system Sodium Channel, Site 2. The data set is described as follows: Eurofins radioligand binding. Further details: species or system Rat.
Data set [27] has as its system Thyroid Hormone. The data set is described as follows: Eurofins radioligand binding. Further details: species or system Rat.
The target in data set [28] is Transporter, GABA (Rattus norvegicus, UniProt P23978). The data set is described as follows: Eurofins radioligand binding.

Read-outs that look alike come from different tables or passages of the source.

GABAB1A, sequence (Q9UBS5 15-961 limits assumed): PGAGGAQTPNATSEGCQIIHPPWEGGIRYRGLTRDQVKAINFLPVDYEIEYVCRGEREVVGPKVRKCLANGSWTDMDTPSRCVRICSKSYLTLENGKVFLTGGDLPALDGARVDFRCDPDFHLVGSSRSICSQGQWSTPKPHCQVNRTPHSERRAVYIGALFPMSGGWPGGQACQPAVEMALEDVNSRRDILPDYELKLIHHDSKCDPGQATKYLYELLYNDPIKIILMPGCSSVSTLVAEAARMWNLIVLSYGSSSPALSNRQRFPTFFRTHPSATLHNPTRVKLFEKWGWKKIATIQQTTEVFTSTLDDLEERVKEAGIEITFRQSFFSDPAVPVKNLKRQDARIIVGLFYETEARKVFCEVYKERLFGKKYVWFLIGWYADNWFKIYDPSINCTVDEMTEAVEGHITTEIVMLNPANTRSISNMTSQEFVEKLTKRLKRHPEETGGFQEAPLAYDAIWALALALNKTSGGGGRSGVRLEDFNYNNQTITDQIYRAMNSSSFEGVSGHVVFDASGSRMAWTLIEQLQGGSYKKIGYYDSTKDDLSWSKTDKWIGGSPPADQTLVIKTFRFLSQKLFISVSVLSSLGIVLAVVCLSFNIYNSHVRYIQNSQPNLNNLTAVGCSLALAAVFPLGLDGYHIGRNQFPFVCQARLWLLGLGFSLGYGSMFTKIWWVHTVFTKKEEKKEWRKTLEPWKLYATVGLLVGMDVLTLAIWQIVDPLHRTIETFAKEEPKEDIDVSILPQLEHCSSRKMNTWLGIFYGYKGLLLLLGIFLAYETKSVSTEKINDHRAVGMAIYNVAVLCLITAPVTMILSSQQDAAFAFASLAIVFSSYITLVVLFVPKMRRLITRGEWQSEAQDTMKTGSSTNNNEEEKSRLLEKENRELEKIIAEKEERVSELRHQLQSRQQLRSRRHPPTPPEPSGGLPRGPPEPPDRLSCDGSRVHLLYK
GABAB1A, sequence (O75899 42-941 partner): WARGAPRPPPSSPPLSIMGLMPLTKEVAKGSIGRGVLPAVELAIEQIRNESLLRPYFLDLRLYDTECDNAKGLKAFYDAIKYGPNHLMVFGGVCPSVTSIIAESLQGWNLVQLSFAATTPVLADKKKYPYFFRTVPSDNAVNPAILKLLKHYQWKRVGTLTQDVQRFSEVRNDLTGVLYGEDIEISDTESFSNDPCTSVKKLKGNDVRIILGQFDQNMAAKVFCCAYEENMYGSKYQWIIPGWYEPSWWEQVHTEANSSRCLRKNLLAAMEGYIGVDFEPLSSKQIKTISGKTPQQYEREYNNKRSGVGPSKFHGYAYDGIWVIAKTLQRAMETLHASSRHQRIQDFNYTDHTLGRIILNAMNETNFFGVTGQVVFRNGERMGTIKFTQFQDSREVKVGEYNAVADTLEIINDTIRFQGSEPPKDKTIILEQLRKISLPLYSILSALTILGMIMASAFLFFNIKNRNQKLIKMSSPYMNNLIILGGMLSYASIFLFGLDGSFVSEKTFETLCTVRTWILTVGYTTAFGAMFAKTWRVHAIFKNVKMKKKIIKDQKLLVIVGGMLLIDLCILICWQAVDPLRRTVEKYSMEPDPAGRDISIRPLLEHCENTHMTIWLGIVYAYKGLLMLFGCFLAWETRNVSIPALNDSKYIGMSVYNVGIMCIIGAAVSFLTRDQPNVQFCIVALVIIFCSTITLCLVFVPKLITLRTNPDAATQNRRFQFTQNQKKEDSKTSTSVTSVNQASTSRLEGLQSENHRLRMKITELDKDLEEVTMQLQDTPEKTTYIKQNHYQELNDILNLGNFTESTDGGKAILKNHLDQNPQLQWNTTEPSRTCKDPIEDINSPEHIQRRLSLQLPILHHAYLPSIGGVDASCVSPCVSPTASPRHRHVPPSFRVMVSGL
Opiate μ (OP3, MOP), sequence (P35372 whole entry): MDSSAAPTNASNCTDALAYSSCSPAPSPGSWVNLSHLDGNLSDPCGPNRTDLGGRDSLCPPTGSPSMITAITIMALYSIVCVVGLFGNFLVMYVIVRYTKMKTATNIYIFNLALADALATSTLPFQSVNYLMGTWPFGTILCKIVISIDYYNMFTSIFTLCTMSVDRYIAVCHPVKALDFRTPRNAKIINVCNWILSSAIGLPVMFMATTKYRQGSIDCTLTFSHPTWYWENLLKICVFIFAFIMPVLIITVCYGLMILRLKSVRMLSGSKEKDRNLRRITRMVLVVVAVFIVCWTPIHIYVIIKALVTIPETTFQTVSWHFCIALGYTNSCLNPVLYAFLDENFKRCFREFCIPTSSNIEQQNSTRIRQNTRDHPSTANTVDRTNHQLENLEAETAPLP

On to `Cn1cc2c(-c3cc(F)c(CN4Cc5ncccc5C4=O)c(F)c3)cccc2n1` [compound 1], for which the “rat CLhep” value in data set [1] is listed as 5.7 mL/min/kg. The concentration for half-maximal inhibition (IC50) in data set [2] is 12 µM.

Take `[2H]C1([2H])c2ncccc2C(=O)N1Cc1c(F)cc(-c2cccc3nn(C([2H])([2H])[2H])cc23)cc1F` [compound 5]: in [3], 21 µM corresponded to half-maximal inhibition (IC50). Moreover, the AUC(0-t) in [4] (3 mg/kg) was 8390 ng·h/mL; in data set [4] (10 mg/kg), 23900 ng·h/mL; in data set [4] (30 mg/kg), 55600 ng·h/mL; in [4] (100 mg/kg), 87800 ng·h/mL. For the same compound, the Cmax in data set [4] (3 mg/kg) is 1250 ng/mL; in data set [4] (10 mg/kg) it was 3380 ng/mL; in data set [4] (30 mg/kg) it was 6020 ng/mL; in data set [4] (100 mg/kg) it was 7850 ng/mL. For the same compound, the “cholinergic signs or adverse events” value in data set [4] (rat oral dose escalation 3-100 mg/kg) was “no cholinergic signs or adverse events were noted”. Further, the inhibition at 10 µM is 7% in data set [5]; 58% in data set [6]; 13% in data set [7]; 2% in [8]; -3% in data set [10]; 2% in data set [11]. For the same compound, the inhibition at 10 µM in data set [12] is -1%; in [13], 1%; in [15] it was -5%; in [19], 2%; in data set [20], 5%; in [21] it was -3%. Further, the inhibition at 10 µM in data set [22] was 8%; in [23], 5%; in data set [25] it was -5%; in [28] it was 31%. Moreover, the “% Inhibition at 10 µM” value in [9] is given as 6%; in data set [14], 0%; in data set [16], 13%; in [17] it was 3%; in data set [18] it was -8%; in data set [24], 10%. The figures for the “% Inhibition at 10 µM” value in data set [26] and in data set [27] were 14% and 0%, respectively.
